Test results as given in patent US20120270237A9, “METHODS FOR THE IDENTIFICATION OF KINASE INTERACTING MOLECULES AND FOR THE PURIFICATION OF KINASE PROTEINS” (Cellzone AG, priority 2009, published 2012).

Legend:
Assay in all cases: Kinobeads competition binding, L-363 cell lysate
Set-up in all cases: endogenous in cells
Conditions in all cases: 10 μM free compound, L-363 lysate
CK2a2 = CK2a2 (Homo sapiens, UniProt P19784)
Procedure, shortened: (§1)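 Kinases remaining free after lysate exposure to 10 μM test compound were pulled down by beads carrying the immobilized compound and compared with a DMSO-treated aliquot via iTRAQ LC-MS/MS. Cells had received MG132 (20 μM, 3 h).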

BIKE = BIKE (Homo sapiens, UniProt Q9NSY1)
Procedure, shortened: as §1

ALK2 = ALK2 (Homo sapiens, UniProt Q04771)
Procedure, shortened: as §1

TAO3 = target: T1, TAO3 (Homo sapiens, UniProt Q9H2K8)
T1 sequence (Q9H2K8 1-898): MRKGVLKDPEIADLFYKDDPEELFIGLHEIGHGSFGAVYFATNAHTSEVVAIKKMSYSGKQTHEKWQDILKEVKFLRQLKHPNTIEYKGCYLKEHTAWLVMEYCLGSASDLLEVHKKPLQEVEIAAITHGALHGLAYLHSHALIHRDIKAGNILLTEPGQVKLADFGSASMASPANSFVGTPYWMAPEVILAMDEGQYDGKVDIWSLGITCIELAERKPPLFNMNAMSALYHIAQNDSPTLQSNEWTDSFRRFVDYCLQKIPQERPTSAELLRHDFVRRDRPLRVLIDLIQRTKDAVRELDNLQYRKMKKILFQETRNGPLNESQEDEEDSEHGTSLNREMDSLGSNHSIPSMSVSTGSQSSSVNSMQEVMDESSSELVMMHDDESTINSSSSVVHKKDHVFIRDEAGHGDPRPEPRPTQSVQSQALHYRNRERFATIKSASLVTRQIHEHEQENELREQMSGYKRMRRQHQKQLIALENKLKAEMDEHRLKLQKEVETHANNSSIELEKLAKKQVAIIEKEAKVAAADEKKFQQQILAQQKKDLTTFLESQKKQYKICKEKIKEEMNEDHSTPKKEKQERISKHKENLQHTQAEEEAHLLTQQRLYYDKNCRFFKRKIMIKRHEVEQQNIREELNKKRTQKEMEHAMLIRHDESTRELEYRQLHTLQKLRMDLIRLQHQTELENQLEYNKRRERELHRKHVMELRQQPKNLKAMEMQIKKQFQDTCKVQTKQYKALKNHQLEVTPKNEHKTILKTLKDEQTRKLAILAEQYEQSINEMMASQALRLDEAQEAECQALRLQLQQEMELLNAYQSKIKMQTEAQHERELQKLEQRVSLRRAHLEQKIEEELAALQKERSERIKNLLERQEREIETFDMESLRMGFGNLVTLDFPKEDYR
Procedure, shortened: as §1

PKD2 = target: T2, PKD2 (Homo sapiens, UniProt Q9BZL6)
T2 sequence (Q9BZL6 1-878): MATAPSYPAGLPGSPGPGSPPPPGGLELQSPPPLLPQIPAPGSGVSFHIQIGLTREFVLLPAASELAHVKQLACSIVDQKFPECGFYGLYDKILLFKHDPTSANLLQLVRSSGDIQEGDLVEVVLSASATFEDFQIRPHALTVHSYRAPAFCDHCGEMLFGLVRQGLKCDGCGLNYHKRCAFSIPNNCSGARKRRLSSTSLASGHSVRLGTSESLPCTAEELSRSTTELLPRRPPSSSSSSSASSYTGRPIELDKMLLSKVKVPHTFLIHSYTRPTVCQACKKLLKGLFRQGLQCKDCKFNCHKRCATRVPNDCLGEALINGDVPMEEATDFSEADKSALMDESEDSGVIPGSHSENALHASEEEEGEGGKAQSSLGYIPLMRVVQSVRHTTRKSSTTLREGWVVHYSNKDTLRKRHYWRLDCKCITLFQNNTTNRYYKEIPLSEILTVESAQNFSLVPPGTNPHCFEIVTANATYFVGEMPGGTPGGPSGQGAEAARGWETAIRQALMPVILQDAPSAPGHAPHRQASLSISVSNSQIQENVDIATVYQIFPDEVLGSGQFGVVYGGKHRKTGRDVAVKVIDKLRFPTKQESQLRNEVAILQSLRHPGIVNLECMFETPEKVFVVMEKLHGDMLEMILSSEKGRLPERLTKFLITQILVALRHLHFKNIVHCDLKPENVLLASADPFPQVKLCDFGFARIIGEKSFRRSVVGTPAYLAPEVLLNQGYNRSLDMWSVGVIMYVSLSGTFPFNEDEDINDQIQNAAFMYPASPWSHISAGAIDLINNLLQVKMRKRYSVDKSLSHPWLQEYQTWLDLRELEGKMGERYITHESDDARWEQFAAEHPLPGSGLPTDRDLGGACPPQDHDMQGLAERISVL
Procedure, shortened: as §1

RSK2 = RSK2 (Homo sapiens, UniProt P51812)
Procedure, shortened: as §1

HIPK2 = HIPK2 (Homo sapiens, UniProt Q9H2X6)
Procedure, shortened: as §1

AMPKa1 = AMPKa1 (Homo sapiens, UniProt Q13131)
Procedure, shortened: as §1

inhibition at 10 µM (CK2a2): 97.5%
inhibition at 10 µM (BIKE): 97%
inhibition at 10 µM (ALK2): 95.7%
inhibition at 10 µM (TAO3): 94.7%
inhibition at 10 µM (PKD2): 98%
inhibition at 10 µM (RSK2): 97.7%
inhibition at 10 µM (HIPK2): 95.6%
inhibition at 10 µM (AMPKa1): 97.7%
Structure (SMILES): CS(=O)(=O)Nc1ccccc1Nc1nc(Nc2cccc(OCCN)c2)ncc1Cl [CZC31326, N-(2-(2-(3-(2-aminoethoxy)phenylamino)-5-chloropyrimidin-4-ylamino)phenyl)methanesulfonamide]
